IC50 data for 20 compounds are collected here from patent US9145393B2, “Arylpyridinone ITK inhibitors for treating inflammation and cancer” (Confluence Life Sciences, Inc., priority 2014, dated 2015).

As a reminder, the IC50 is the point on the concentration scale where inhibition reaches its midpoint.

Counter-ions that a name gives are not always drawn.

In one assay the test system is ITK mediated IL-2 release in Jurkat cells. Kind of assay: ITK IL-2 release assay in CD3/CD28-stimulated Jurkat cells. The following applies: Homo sapiens, CD3/CD28 Dynabeads stimulation, overnight, read-out: IL-2 Production Inhibition IC50. It is filed as cell-based. As for the experimental part:
This assay was based on the ability of a compound to inhibit ITK mediated IL-2 release. Jurkat cells were placed in wells of a 96-well plate at 500,000 per well in 120 μL medium (same as above). Compounds were added as 15 μL per well of 10× working stock solutions in medium with 1% DMSO (or medium with 1% DMSO for Controls) and placed in a 37° C. incubator for 2 hours. Stimulation used CD3/CD28 Dynabeads to activate the T cell receptor and mimic antigen-presenting cells. Beads were added at a ratio of 1 bead per cell, in 15 μL medium (or medium alone for unstimulated Control). After overnight incubation, the plates were centrifuged at 290×g for 5 min, then 100 μL per well of supernatant medium removed for IL-2 cytokine assay. To determine cell viability, to the remaining well Contents 50 μL of CellTiter-Glo reagent was added and luminescence determined. The IL-2 cytokine assay utilized an electochemiluminescence-based ELISA.
`C=CC(=O)N1CC(Nc2cc(-c3ccnc(NC)c3)c[nH]c2=O)C1` [Example 9, 5-((1-acryloylazetidin-3-yl)amino)-2′-(methylamino)-[3,4′-bipyridin]-6(1H)-one]: the IC50 was not above 1000 nM. On the same count and under the same terms, then `C=CC(=O)N1CC(Nc2cc(-c3ccnc(NC)n3)c[nH]c2=O)C1` [Example 10, 3-((1-acryloylazetidin-3-yl)amino)-5-(2-(methylamino)pyrimidin-4-yl)pyridin-2(1H)-one], with not above 1000 nM; and `C=CC(=O)N1CC(Nc2cc(-c3cncc(NC)n3)c[nH]c2=O)C1` [Example 11, 3-((1-acryloylazetidin-3-yl)amino)-5-(6-(methylamino)pyrazin-2-yl) pyridin-2(1H)-one], with not above 1000 nM.

Another assay concerns the target T1, ITK (Homo sapiens, UniProt Q08881).
T1 sequence (Q08881 1-620): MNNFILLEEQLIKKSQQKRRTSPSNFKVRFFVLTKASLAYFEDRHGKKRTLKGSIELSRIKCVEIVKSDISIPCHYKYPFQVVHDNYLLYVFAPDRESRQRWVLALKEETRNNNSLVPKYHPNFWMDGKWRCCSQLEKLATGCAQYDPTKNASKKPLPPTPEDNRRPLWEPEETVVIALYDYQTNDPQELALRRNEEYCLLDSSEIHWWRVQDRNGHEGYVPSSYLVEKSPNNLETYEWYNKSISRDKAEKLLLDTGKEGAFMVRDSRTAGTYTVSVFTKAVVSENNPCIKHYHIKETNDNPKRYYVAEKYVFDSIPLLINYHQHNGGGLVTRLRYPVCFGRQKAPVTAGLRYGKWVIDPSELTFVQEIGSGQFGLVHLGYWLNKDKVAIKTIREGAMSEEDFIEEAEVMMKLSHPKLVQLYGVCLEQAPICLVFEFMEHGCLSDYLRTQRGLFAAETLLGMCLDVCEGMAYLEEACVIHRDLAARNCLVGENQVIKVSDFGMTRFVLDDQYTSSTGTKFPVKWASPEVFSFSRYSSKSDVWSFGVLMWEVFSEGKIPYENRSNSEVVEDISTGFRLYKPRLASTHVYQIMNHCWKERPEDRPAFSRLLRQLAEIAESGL
Kind of assay: ITK inhibitor binding potency (LanthaScreen TR-FRET competitive binding assay). To be noted: pre-incubation condition not stated; read-out: ITK Inhibition IC50. The text has this: The ability of candidate compounds to interact with ITK is quantitated by a competitive binding assay using the LanthaScreen technology developed by Life Technologies. This assay is based on the binding of a proprietary, Alexa Fluor® 647-labeled, ATP-competitive kinase inhibitor (kinase tracer-236) to the ITK expression construct in the presence of a Europium-conjugated antibody, resulting in a FRET (fluorescence resonance energy transfer) signal. Displacement of the kinase tracer by compound results in a lower emission ratio upon excitation of the Europium chelate. Candidate compounds are designed as potential irreversible inhibitors of ITK, capable of ligating to an active site cysteine residue resulting in time dependent covalent binding. The time dependent nature of irreversible inhibition is investigated by performing the binding assay with and without a pre-incubation of compound and ITK. […] The inhibitory potency of candidate compounds is measured in 20 mM HEPES pH 7.5, 10 mM MgCl2, 0.01% BSA, 0.0005% Tween-20, and 2% DMSO in the presence of 10 nM ITK, 2 nM Eu-anti-GST antibody, and 50 nM kinase tracer-236 using a 384-well plate format. Background signal is defined in the absence of ITK and uninhibited signal is defined in the presence of vehicle (2% DMSO) alone. Compounds were evaluated in an 11-point dose-response ranging from 20 uM to 0.34 nM. The binding assays are performed under two preincubation Conditions to evaluate time dependence of inhibition. For the pre-incubation assay, ITK and Eu-anti-GST antibody are pre-incubated with compound or vehicle for two hours prior to the addition of kinase tracer. The non-preincubated assay is run under Conditions where ITK and Eu-anti-GST antibody are added to a mixture of compound and kinase tracer. IC50 values of compounds are determined using a 4 parameter logistical fit of emission ratio as a function of the concentration of compound.
A general note: In TR-FRET formats the signal depends on donor and acceptor labels being close together.
Turning to `O=C(CCl)N1CCC[C@@H](Nc2cc(-c3ccncc3)c[nH]c2=O)C1` [Example 1, (R)-5-((1-(2-Chloroacetyl)piperidin-3-yl)amino)-[3,4′-bipyridin]-6(1H)-one], the half-maximal inhibitory concentration (IC50) is not above 1000 nM. On the same count and under the same terms, for `C=CC(=O)N1CCC[C@@H](Nc2cc(-c3ccncc3)c[nH]c2=O)C1` [Example 2, (R)-5-((1-Acryloylpiperidin-3-yl)amino)-[3,4′-bipyridin]-6(1H)-one] the value was more than 1000 nM. The same measure, in the same setting: then `C=CC(=O)N1CC[C@@H](Nc2cc(-c3ccncc3)c[nH]c2=O)C1` [Example 3, (R)-5-((1-Acryloylpyrrolidin-3-yl)amino)-[3,4′-bipyridin]-6(1H)-one], with more than 1000 nM. Consider `O=C(CCl)N1CC(Nc2cc(-c3ccncc3)c[nH]c2=O)C1` [Example 4, 5-((1-(2-Chloroacetyl)azetidin-3-yl)amino)-[3,4′-bipyridin]-6(1H)-one], for which the IC50 was not above 1000 nM. As for `C=CC(=O)N1CC(Nc2cc(-c3ccncc3)c[nH]c2=O)C1` [Example 5, 5-((1-Acryloylazetidin-3-yl)amino)-[3,4′-bipyridin]-6(1H)-one], the IC50 is not above 1000 nM. Same read-out and setting: for `C/C=C/C(=O)N1CC(Nc2cc(-c3ccncc3)c[nH]c2=O)C1` [Example 6, (E)-5-((1-(But-2-enoyl)azetidin-3-yl)amino)-[3,4′-bipyridin]-6(1H)-one] the value was more than 1000 nM; for `C=CC(=O)N1CC(Nc2cc(-c3ccnc(C)c3)c[nH]c2=O)C1` [Example 7, 5-((1-acryloylazetidin-3-yl)amino)-2′-methyl-[3,4′-bipyridin]-6(1H)-one], not above 1000 nM; for `C=CC(=O)N1CC(Nc2cc(-c3cncc(OC)n3)c[nH]c2=O)C1` [Example 8, 3-((1-acryloylazetidin-3-yl)amino)-5-(6-methoxypyrazin-2-yl) pyridin-2(1H)-one], not above 1000 nM. Same read-out and setting: then `C=CC(=O)N1CC(Nc2cc(-c3ccnc(NC)c3)c[nH]c2=O)C1` [Example 9, 5-((1-acryloylazetidin-3-yl)amino)-2′-(methylamino)-[3,4′-bipyridin]-6(1H)-one], with not above 1000 nM; and `C=CC(=O)N1CC(Nc2cc(-c3ccnc(NC)n3)c[nH]c2=O)C1` [Example 10, 3-((1-acryloylazetidin-3-yl)amino)-5-(2-(methylamino)pyrimidin-4-yl)pyridin-2(1H)-one], with not above 1000 nM. The same measure, in the same setting: then `C=CC(=O)N1CC(Nc2cc(-c3cncc(NC)n3)c[nH]c2=O)C1` [Example 11, 3-((1-acryloylazetidin-3-yl)amino)-5-(6-(methylamino)pyrazin-2-yl) pyridin-2(1H)-one], with not above 1000 nM. For `CNC(=O)/C=C/C(=O)N1CC(Nc2cc(-c3ccncc3)c[nH]c2=O)C1` [Example 12, (E)-N-methyl-4-oxo-4-(3-((6-oxo-1,6-dihydro-[3,4′-bipyridin]-5-yl)amino)azetidin-l-yl)but-2-enamide], the IC50 is more than 1000 nM. Still for that read-out and setting: then `CNC/C=C/C(=O)N1CC(Nc2cc(-c3ccncc3)c[nH]c2=O)C1` [Example 13, (E)-5-((1-(4-(methylamino)but-2-enoyl)azetidin-3-yl)amino)-[3,4′-bipyridin]-6(1H)-one], with not above 1000 nM. As to `CNc1cc(-c2c[nH]c(=O)c(NC3CN(C(=O)/C=C/c4ccccc4)C3)c2)ccn1` [Example 14, (E)-5-((1-Cinnamoylazetidin-3-yl)amino)-2′-(methylamino)-[3,4′-bipyridin]-6(1H)-one], the IC50 is more than 1000 nM.

As to `CNc1cc(-c2c[nH]c(=O)c(NC3CN(C(=O)/C=C/Cc4ccccc4)C3)c2)ccn1` [Example 15, (E)-2′-(Methylamino)-5-((1-(4-phenylbut-2-enoyl)azetidin-3-yl)amino)-[3,4′-bipyridin]-6(1H)-one], the IC50 was more than 1000 nM. Same read-out and setting: then `C=CC(=O)N1CC(Nc2cc(-c3ccnc(C(=O)Nc4ccc(C(C)C)c(C)c4)c3)c[nH]c2=O)C1` [Example 16, 5-((1-Acryloylazetidin-3-yl)amino)-N-(4-isopropyl-3-methylphenyl)-6-oxo-1,6-dihydro-[3,4′-bipyridine]-2′-carboxamide hydrochloride], with not above 1000 nM. For `Cc1cc(NC(=O)c2cc(-c3c[nH]c(=O)c(NC4CN(C(=O)CCl)C4)c3)ccn2)ccc1C(C)C` [Example 17, 5-((1-(2-Chloroacetyl)azetidin-3-yl)amino)-N-(4-isopropyl-3-methylphenyl)-6-oxo-1,6-dihydro-[3,4′-bipyridine]-2′-carboxamide formate], the concentration for half-maximal inhibition (IC50) was more than 1000 nM. Same read-out and setting: for `CC/C=C/C(=O)N1CC(Nc2cc(-c3ccnc(NC)c3)c[nH]c2=O)C1` [Example 18, (E)-2′-(Methylamino)-5-((1-(pent-2-enoyl)azetidin-3-yl)amino)-[3,4′-bipyridin]-6(1H)-one] the value was not above 1000 nM; for `CNc1cc(-c2c[nH]c(=O)c(NC3CN(C(=O)/C=C/CN(C)C)C3)c2)ccn1` [Example 19, (E)-5-((1-(4-(Dimethylamino)but-2-enoyl)azetidin-3-yl)amino)-2′-(methylamino)-[3,4′-bipyridin]-6(1H)-one], not above 1000 nM; for `CNc1cc(-c2c[nH]c(=O)c(NC3CN(C(=O)/C=C/CCOc4ccccc4)C3)c2)ccn1` [Example 20, (E)-2′-(Methylamino)-5-((1-(5-phenoxypent-2-enoyl)azetidin-3-yl)amino)-[3,4′-bipyridin]-6(1H)-one], not above 1000 nM.
